Assay results published in patent US11771737B2, “Treating or preventing adverse liver conditions” (priority 2017, dated 2023).

Assays:
hepatic NKT cells [1] = assay: Flow cytometry of liver and spleen immune cell subsets of treated mice; assay type: in vivo; conditions: single antibiotic; for hepatic CD4+ or CD8+ T cells: FIGS. 29H and 29I; for hepatic NKT cells: naïve C57BL/6 mice
Procedure: Cells were surface-labelled with the indicated antibodies for 15 min at 4° C. Intracellular staining using a Foxp3/transcription factor staining buffer set (eBioscience, now part of ThermoFisher Scientific, Waltham, Mass., USA) was used according the manufacturer's instructions. Flow cytometry was performed on a BD LSRFortessa platform (BD Biosciences, San Jose, Calif., USA) and results were analyzed using FlowJo software version 9.3.1.2 (TreeStar, Ashland, Oreg., USA). Dead cells were excluded by using live/dead fixable near-IR dead cell staining kit (ThermoFisher Scientific).
The following antibodies were used for flow cytometry analysis: anti-TCRβ-BV510 (clone H57-587, Biolegend, San Diego, Calif., USA), PBS57/CD1d-tetramer-APC (NIH core facility, Bethesda, Md., USA), anti-CXCR6-FITC (clone SA051D1, Biolegend), anti-CD3-PE (clone 17A2, Biolegend), anti-CD4-PE (clone RM4-5, Biolegend), anti-CD4-Alexa Fluor 700 (clone GK1.5, Biolegend), anti-CD8-BV210 (clone 53-61 Biolegend), anti-CD19-PerCP/Cy5.5 (clone eBiolD3, eBioscience), anti-CD49b (clone DX5, eBioscience), anti-TCRγ/δ-PE, (clone GL3, BD pharmingen, BD Biosciences), anti-CD11b-BV421 (clone M1/70, Biolegend), anti-Ly6G-Alexa Fluor 700 (clone 1A8, Biolegend), anti-Ly6C-APC (clone HK1.4, Biolegend), anti-CD44-PE/Cy7 (clone IM7, eBioscience), anti-CD62L-PerCP/Cy5.5 (MEL-14, Biolegend), anti-CD69-Pacific blue (clone H1.2F3, Biolegend), anti-CD25-FITC (clone 7D4, BD pharmingen), anti-4-1BB-PE (clone 17B5, Biolegend), anti-Foxp3-Alexa Fluor 488 (clone 22F6, Biolegend), anti-Tbet-Pacific Blue (clone 4B10, Biolegend), anti-RORγ-PE (clone B2D, eBioscience), anti-PLZF-PerCP/Cy5.5 (clone 9E12, Biolegend), anti-CD1d-PE (clone 1B1, eBioscience), anti-IFNγ-PE (clone XMG1.2, BD Biosciences), and anti-TNFα-PerCP/Cy5.5 (clone MP6-XT22, Biolegend).
The following markers were used for identifying different immune cell subsets: TCRβ^+CD1d-Teteramer^+ for NKT cells, CD3^+CD4^hi for hepatic CD4^+ T cells, CD3^+CD8^+ for CD8^+ T cells, CD3^−CD19^+ for B cells, CD3^−CD49b^+ for NK cells, CD3^+TCRγ/δ^+ for γ/δ T cells, CD11b^+Ly6G^+Ly6C^lo for G-MDSC. Absolute numbers were calculated by multiplying frequencies obtained from flow cytometry by the total live mononuclear cell count, and then divided by liver weight.

stool bacteria = assay: Stool bacteria analysis by 16S rRNA sequencing; assay type: in vivo, mice
Procedure: (§1) FIG. 33A is a line graph showing stool bacteria analysis performed by 16S rRNA sequencing, in accordance with embodiments of the invention. Five week old mice were administered vancomycin for one week. Then vancomycin was stopped, and mice were given oral gavage of C. scindens or vehicle (cessation). Measurements were taken twenty-four hours after gavage. Alpha diversity is shown.
as §1, with “33B” for “33A”, “dot plot” for “line graph”, “Beta” for “Alpha”
Mice were fed with vancomycin in drinking water (Hospira, 0.5 g/L) for one week. Fresh antibiotic water was replaced every other day. One week later vancomycin was stopped, and the mice were given oral gavage of 10^9 C. scindens or vehicle (anaerobic glycerol) every day for 5 days. C. scindens was purchased from ATCC (35704), and grown under anaerobic conditions. One day after gavage, the colonization of C. scindens were confirmed by real-time PCR using primers specific for C. scindens.
Mouse stool DNA extraction and 16S V4 tregion amplification were performed on the liquid handling robots (epMotion 5075 and epMotion 5073, Eppendorf, Hamburg, Germany). The V4 region of the 16S rDNA gene (515F-806R) was sequenced, generating partially overlapping, paired-end reads on the Illumina MiSeq platform (Illumina, San Diego, Calif., USA). After quality control filtering, a total of 3,979,728 reads were processed with an average of 132,657 reads per sample. The demultiplexed FASTQ files containing the 16S rRNA gene sequences were filtered for chimeric sequences using the USEARCH (Edgar, Bioinformatics, 26: 2460-2461 (2010), incorporated by reference herein; version 8.1.1831) utility's UCHIME implementation and the ‘gold’ database (version microbiomeutil-r20110519). The reads were then binned into Operational Taxonomic Units (OTUs) at 97% similarity using USEARCH's cluster_otus command. The OTUs thus obtained were classified and aligned using QIIME (Caporaso et al., Nat. Methods, 7: 335-336 (2010), incorporated by reference herein; version 1.9.1) scripts. The assign_taxonomy.py script was used to assign taxonomy using the default RDP method (Wang et al., Appl. Environ. Microbiol., 73: 5261-5267 (2007), incorporated by reference herein) and the default GreenGenes database (DeSantis et al., Appl. Environ. Microbiol., 72: 5069-5072 (2006), incorporated by reference herein). This provided insight into the larger trends at higher taxonomic levels (such as order Clostridiales).
Next, the possible role of Clostridium species on liver NKT cell accumulation was tested in a colonization experiment. Clostridium scindens was chosen because it is commonly found in both mice and human and has a conserved bai (“bile acid inducible”) gene operon for the 7α-dehydroxylation reaction. Mice were fed with vancomycin for one week to induce hepatic NKT cells, then vancomycin was stopped, and the mice were given C. scindens or vehicle. The successful colonization with Clostridium scindens was confirmed (FIG. 32). One day after oral gavage, fecal bacterial were analyzed by 16S rRNA sequencing (FIGS. 33A and 33B, Table 1).

[2] = reported; cited from earlier work
[3] = oral vancomycin, cited from earlier work
Clostridum Cluster XIVa = assay: Stool levels of Clostridium Cluster XIVa by real-time PCR; assay type: in vivo, mice; conditions: single antibiotic administration
Procedure: FIG. 31 is a dot plot showing the stool levels of Clostridum Cluster XIVa from single antibiotic administration measured by real-time PCR. Mice were administered vancomycin, neomycin, cefoparazone or H2O. n=4 for H2O, 10 for vancomycin, 5 for neomycin, p<0.05, one-way ANOVA.
The 7α-dehydroxylation reaction is the most quantitatively important process performed by the gut bacteria in the production of secondary bile acids. This multistep biochemical process is restricted to a narrow phylogenetic group of gram-positive bacterial species belonging to the Clostridium cluster XIV.

hepatic NKT cells [4] = assay: In vivo bile acids feeding, hepatic NKT cell levels; conditions: ABX-administered mice, oral gavage 6 mg/15 g body weight at 48, 24 and 16 hrs
Excerpt: Mice were kept on ABX cocktail and fresh ABX was replaced every other day. Mice were fed with bile acids by oral gavage 48, 24 and 16 hrs prior to sacrifice.

CXCL16 [5] = assay: CXCL16 mRNA in SK-HEP1 cells administered bile acids; assay type: cell-based, human; conditions: 24 hours
Excerpt: FIG. 34A is a dot plot showing CXCL16 mRNA levels measured by real-time PCR in SK-HEP1 cells administered different bile acids, in accordance with embodiments of the invention. n=6, p<0.05, one-way ANOVA.
(§2) Primary mice liver sinusoidal endothelia cells were isolated as previously described (Limmer et al., Nat. Med., 6: 1348-1354 (2000), incorporated by reference herein). Briefly, mice were CO2 euthanized, and then the portal vein was cannulated, and the liver was perfused with 0.05% collagenase in Ca^2+ deprived medium. Liver cells were dissociated, and parenchymal cells were killed by incubation in 0.04% collagenase in Gey's balanced salt solution at 37° C. for 15 minutes. Then density gradient centrifugation was performed using Nycodenz solution at the final solution of 1.089 g/cm^3. Liver sinusoidal endothelial cells (LSEC) were isolated using anti-LSEC microbeads (Miltenyi, Bergisch Gladbach, Germany) according to the manufacturer's instructions. LSECs or the human SK-HEP1 cell line (ATCC, HTB-52) were administered different bile acids for 24 hours. Gene expression was analyzed by real-time PCR. Taurocholic acid (TCA), chenodeoxycholic acid (CDCA), deoxycholic acid (DCA), and taurodeoxycholic acid (TDCA) were purchased from Sigma (now Millpore-Sigma, St. Louis, Mo., USA). […]

CXCL16 [6] = assay: CXCL16 mRNA in primary murine LSECs administered bile acids; assay type: cell-based, mice; conditions: primary murine LSECs in vitro, 24 hours
Excerpt: FIG. 28E is a dot plot showing CXCL16 mRNA levels of isolated LSECs administered different bile acids, in accordance with embodiments of the invention. n=5, p<0.05, one-way ANOVA.
FIG. 28F is a dot plot showing CXCL16 mRNA levels of isolated LSECs administered a combination of T-b-MCA with T-w-MCA or ω-MCA. n=5, p<0.05, one-way ANOVA.
as §2, with “PCR.” for “PCR. Taurocholic acid (TCA), chenodeoxycholic acid (CDCA), deoxycholic acid (DCA), and taurodeoxycholic acid (TDCA) were purchased from Sigma (now Millpore-Sigma, St. Louis, Mo., USA).”

[7] = fecal bacteria, one day after oral gavage

Compound | hepatic CD4+ or CD8+ T cells (hepatic NKT cells [1]) | hepatic NKT cells (hepatic NKT cells [1]) | bile acids in the gut [2] | Clostridium in stool (Clostridum Cluster XIVa) | cxcl16 mRNA expression (CXCL16 [5]) | other results
CN[C@H](CC(C)C)C(=O)N[C@H]1C(=O)N[C@@H](CC(N)=O)C(=O)N[C@H]2C(=O)N[C@H]3C(=O)N[C@H](C(=O)N[C@H](C(=O)O)c4cc(O)cc(O)c4-c4cc3ccc4O)[C@H](O)c3ccc(c(Cl)c3)Oc3cc2cc(c3O[C@@H]2O[C@H](CO)[C@@H](O)[C@H](O)[C@H]2O[C@H]2C[C@](C)(N)[C@H](O)[C@H](C)O2)Oc2ccc(cc2Cl)[C@H]1O [vancomycin] | No significant changes | sufficient to increase hepatic NKT cells | deplete secondary bile acids and increase primary bile acids in the gut | depleted Clostridium |  | Bacteroidales (stool bacteria; [7]): 0.0%; Burkholderiales (stool bacteria; [7]): 4.4%; Clostridiales (stool bacteria; [7]): 3.9%; Enterobacteriales (stool bacteria; [7]): 10.7%; Lactobacillales (stool bacteria; [7]): 43.7%; Verrucomicrobiales (stool bacteria; [7]): 34.3%; change of stool bacteria populations, in words (stool bacteria; vancomycin compared to H2O group, C. scindens gavage after vancomycin): reduction of Clostridiales and Bacteroidales but an expansion of Verrucomicrobiales; fecal secondary bile acids ([3]; obese individuals): decreased fecal secondary bile acids; primary bile acids in plasma ([3]; postprandial): postprandial increase in primary bile acids in plasma
C[C@H](CCC(=O)O)[C@H]1CC[C@H]2[C@@H]3[C@H](O)C[C@@H]4C[C@H](O)CC[C@]4(C)[C@H]3CC[C@]12C [CDCA, chenodeoxycholic acid] |  |  |  |  | induced | hepatic NKT accumulation (hepatic NKT cells [4]): enhanced NKT cell accumulation
CCN1CCN(C(=O)N[C@@H](C(=O)N[C@@H]2C(=O)N3C(C(=O)O)=C(CSc4nnnn4C)CS[C@H]23)c2ccc(O)cc2)C(=O)C1=O [cefoperazone] | No significant changes | increase of liver NKT cells | deplete secondary bile acids and increase primary bile acids in the gut |  |  | 
C[C@H](CCC(=O)NCCS(=O)(=O)O)[C@H]1CC[C@H]2[C@@H]3[C@@H](O)[C@@H](O)[C@@H]4C[C@H](O)CC[C@]4(C)[C@H]3CC[C@]12C [T-β-MCA, Tauro-β-muricholic acid] |  |  |  |  |  | cxcl16 mRNA expression (CXCL16 [6]): induced
neomycin | No significant changes | little effect |  | could not remove Clostridium |  | 
C[C@H](CCC(=O)NCCS(=O)(=O)O)[C@H]1CC[C@H]2[C@@H]3[C@H](O)C[C@@H]4C[C@H](O)CC[C@]4(C)[C@H]3C[C@H](O)[C@]12C [TCA, Taurocholic acid] |  |  |  |  | induced | 
